Measured values from BindingDB's records for doi:10.1021/jm970522y (Parke-Davis Pharmaceutical Research, 1997).

biological target: T1, Dimer of Gag-Pol polyprotein [489-587] (Human immunodeficiency virus 1, UniProt P12497); test: Protease Inhibition Assay; details: pH 6.2; 37 °C
T1 construct: 489-587
Experimental: For determination of IC50 values, HIV-1 protease was added to assay buffer containing inhibitor and the substrate (H-His-Lys-Ala-Arg-Val-Leu- (p-NO2) Phe-Glu-Ala-norleucine-Ser-NH2). The Leu- (p-NO2) Phe bond of the substrate was cleaved by the enzyme, and the substrate and products were separated by reversed-phase HPLC. Absorbance was measured at 220 nm, peak areas were determined, and percentage conversion to product was calculated.

Row | SMILES | IC50
1 | Cc1cc(SC2C(=O)CC(CCc3ccccc3)(c3ccc(OCCO)cc3)OC2=O)c(C(C)(C)C)cc1O (stereo not drawn) [3-[(2-tert-butyl-4-hydroxy-5-methylphenyl)sulfanyl]-4-hydroxy-6-[4-(2-hydroxyethoxy)phenyl]-6-(2-phenylethyl)-5,6-dihydro-2H-pyran-2-one] | 3.7 nM
2 | Cc1cc(SC2C(=O)CC(CCc3ccccc3)(c3ccccc3)OC2=O)c(C(C)(C)C)cc1O (stereo not drawn) [3-[(2-tert-butyl-4-hydroxy-5-methylphenyl)sulfanyl]-4-hydroxy-6-phenyl-6-(2-phenylethyl)-5,6-dihydro-2H-pyran-2-one] | 33 nM
3 | COc1cc(C(C)(C)C)c(SC2C(=O)CC(CCc3ccccc3)(c3ccccc3)OC2=O)cc1C (stereo not drawn) [3-[(2-tert-butyl-4-methoxy-5-methylphenyl)sulfanyl]-4-hydroxy-6-phenyl-6-(2-phenylethyl)-5,6-dihydro-2H-pyran-2-one] | 15 nM
4 | Cc1ccc(C(C)(C)C)c(SC2C(=O)CC(CCc3ccccc3)(c3ccc(O)cc3)OC2=O)c1 (stereo not drawn) [3-[(2-tert-butyl-5-methylphenyl)sulfanyl]-4-hydroxy-6-(4-hydroxyphenyl)-6-(2-phenylethyl)-5,6-dihydro-2H-pyran-2-one] | 40 nM
5 | Cc1ccc(C(C)(C)C)c(SC2C(=O)CC(CCc3ccccc3)(c3ccc(OCCO)cc3)OC2=O)c1 (stereo not drawn) [3-[(2-tert-butyl-5-methylphenyl)sulfanyl]-4-hydroxy-6-[4-(2-hydroxyethoxy)phenyl]-6-(2-phenylethyl)-5,6-dihydro-2H-pyran-2-one] | 12 nM
6 | Cc1cc(SC2C(=O)CC(CCc3ccccc3)(c3ccc(OCCO)cc3)OC2=O)c(C(C)(C)C)cc1OCCO (stereo not drawn) [3-{[2-tert-butyl-4-(2-hydroxyethoxy)-5-methylphenyl]sulfanyl}-4-hydroxy-6-[4-(2-hydroxyethoxy)phenyl]-6-(2-phenylethyl)-5,6-dihydro-2H-pyran-2-one] | 6.4 nM
7 | Cc1cc(SC2C(=O)CC(CCc3ccc(O)cc3)(c3ccc(O)cc3)OC2=O)c(C(C)(C)C)cc1CO (stereo not drawn) [3-{[2-tert-butyl-4-(hydroxymethyl)-5-methylphenyl]sulfanyl}-4-hydroxy-6-(4-hydroxyphenyl)-6-[2-(4-hydroxyphenyl)ethyl]-5,6-dihydro-2H-pyran-2-one] | 120 nM
8 | Cc1cc(SC2C(=O)CC(CCc3cccc(O)c3)(c3ccccc3)OC2=O)c(C(C)(C)C)cc1CO (stereo not drawn) [3-{[2-tert-butyl-4-(hydroxymethyl)-5-methylphenyl]sulfanyl}-4-hydroxy-6-[2-(3-hydroxyphenyl)ethyl]-6-phenyl-5,6-dihydro-2H-pyran-2-one] | 2.5 nM
9 | Cc1cc(SC2C(=O)CC(CCc3ccc(O)cc3)(C(C)C)OC2=O)c(C(C)(C)C)cc1CO (stereo not drawn) [3-{[2-tert-butyl-4-(hydroxymethyl)-5-methylphenyl]sulfanyl}-4-hydroxy-6-[2-(4-hydroxyphenyl)ethyl]-6-(propan-2-yl)-5,6-dihydro-2H-pyran-2-one] | 3.6 nM
10 | Cc1cc(SC2C(=O)CC(CCc3ccccc3)(c3ccc(OCCO)cc3)OC2=O)c(C(C)(C)C)cc1CO (stereo not drawn) [3-{[2-tert-butyl-4-(hydroxymethyl)-5-methylphenyl]sulfanyl}-4-hydroxy-6-[4-(2-hydroxyethoxy)phenyl]-6-(2-phenylethyl)-5,6-dihydro-2H-pyran-2-one] | 1.4 nM
11 | COCc1cc(C(C)(C)C)c(SC2C(=O)CC(CCc3ccccc3)(c3ccc(OCCO)cc3)OC2=O)cc1C (stereo not drawn) [3-{[2-tert-butyl-4-(methoxymethyl)-5-methylphenyl]sulfanyl}-4-hydroxy-6-[4-(2-hydroxyethoxy)phenyl]-6-(2-phenylethyl)-5,6-dihydro-2H-pyran-2-one] | 4.5 nM
12 | Cc1ccc(C(C)(C)C)c(SC2C(=O)CC(CCc3ccccc3)(c3ccccc3)OC2=O)c1 (stereo not drawn) [4-Hydroxy-5,6-dihydropyrone deriv. 49] | 35 nM
13 | Cc1ccc(C(C)(C)C)c(SC2C(=O)CC(CCc3ccccc3)(c3ccc(N)cc3)OC2=O)c1 (stereo not drawn) [6-(4-aminophenyl)-3-[(2-tert-butyl-5-methylphenyl)sulfanyl]-4-hydroxy-6-(2-phenylethyl)-5,6-dihydro-2H-pyran-2-one] | 32 nM
14 | Cc1cc(SC2C(=O)CC(CCc3cccc(N)c3)(c3ccccc3)OC2=O)c(C(C)(C)C)cc1CO (stereo not drawn) [6-[2-(3-aminophenyl)ethyl]-3-{[2-tert-butyl-4-(hydroxymethyl)-5-methylphenyl]sulfanyl}-4-hydroxy-6-phenyl-5,6-dihydro-2H-pyran-2-one] | 4 nM
15 | Cc1ccc(C(C)(C)C)c(SC2C(=O)CC(CCc3ccc(N)cc3)(c3ccccc3)OC2=O)c1 (stereo not drawn) [6-[2-(4-aminophenyl)ethyl]-3-[(2-tert-butyl-5-methylphenyl)sulfanyl]-4-hydroxy-6-phenyl-5,6-dihydro-2H-pyran-2-one] | 24 nM
16 | Cc1cc(SC2C(=O)CC(CCc3ccc(N)cc3)(C(C)C)OC2=O)c(C(C)(C)C)cc1CO (stereo not drawn) [6-[2-(4-aminophenyl)ethyl]-3-{[2-tert-butyl-4-(hydroxymethyl)-5-methylphenyl]sulfanyl}-4-hydroxy-6-(propan-2-yl)-5,6-dihydro-2H-pyran-2-one] | 2.7 nM
17 | Cc1ccc(C(C)(C)C)c(SC2C(=O)CC(CCc3ccc(O)cc3)(c3ccccc3)OC2=O)c1 (stereo not drawn) [PD 178390 Analog 1] | 11 nM
18 | Cc1cc(SC2C(=O)CC(C)(CCc3ccc(O)cc3)OC2=O)c(C(C)(C)C)cc1CO (stereo not drawn) [PD 178390 Analog 12] | 4.3 nM
19 | Cc1cc(SC2C(=O)CC(CCc3ccc(O)cc3)(C3CCCCC3)OC2=O)c(C(C)(C)C)cc1CO (stereo not drawn) [PD 178390 Analog 21] | 4.1 nM
20 | Cc1cc(SC2C(=O)CC(CCc3ccc(N)cc3)(c3ccccc3)OC2=O)c(C(C)(C)C)cc1CO (stereo not drawn) [PD 178390 Analog 33] | 3.1 nM
21 | Cc1cc(SC2C(=O)CC(CCc3ccc(N)cc3)(C3CCCCC3)OC2=O)c(C(C)(C)C)cc1CO (stereo not drawn) [PD 178390 Analog 36] | 3.2 nM
22 | Cc1cc(SC2C(=O)CC(CCc3ccccc3)(c3ccccc3)OC2=O)c(C(C)(C)C)cc1CO (stereo not drawn) [PD 178390 Analog 38] | 6.6 nM
23 | Cc1cc(SC2C(=O)CC(CCc3ccccc3)(c3ccccc3)OC2=O)c(C(C)(C)C)cc1OCCO (stereo not drawn) [PD 178390 Analog 41] | 6.8 nM
